Data taken from paper PMC10725991, “Kaempferol is a novel antiviral agent against channel catfish virus infection through blocking viral attachment and penetration in vitro” (Frontiers in Veterinary Science, 2023).

Experiments:
[1] = tested on: CCV ORF 39 and ORF 59 proteins in CCO cells; assay: Western blot of CCV ORF 39 and ORF 59 proteins; assay type: cell-based, Channel catfish virus (CCV, Ictalurid herpesvirus 1)
Procedure: To test the anti-CCV effect of tested compounds in the preliminary screening, CCO cells were seeded in 24-well plates and cultured to reach approximately 90% confluence in each well at 28°C. Subsequently, the cells were infected with the CCV at 10^3 TCID50/ml at 28°C for 1 h. After that, the cell culture medium was replaced using an isopycnic DMEM medium containing the maximum safe concentration of indicated compounds. CCV-infected cells treated with DMSO served as a negative control, whereas CCV-infected cells treated with acyclovir (2.5 μg/mL) served as a positive control ([33]). After 36 h treatment, cell lysates were collected to test the CCV gene expression by the RT-qPCR, and the percentage inhibition of CCV infection by individual compound was calculated. According to the percentage inhibition results, we further detected the antiviral activity of kaempferol at maximum safe concentration by viral cytopathic effects (CPE) and western blot analysis. […]
For the western blot assay, firstly, cells were lysed with cell lysis buffer (Beyotime, China), and then the concentrations of protein samples collected from cell lysates protein were determined using the Enhanced BCA Protein Assay Kit (Beyotime, China). […] Finally, the signals were detected using an ECL kit (Beyotime, China) according to the manufacturer’s instructions.

[2] = tested on: CCV in CCO cells; assay: Liquid plaque assay; assay type: cell-based, Channel catfish virus (CCV; details: Ictalurid herpesvirus 1; kaempferol 10 μg/mL, 36 h; read-out: inhibition of viral plaque formation
Procedure: For analyzing the CPE reduction of viral infected CCO cells by kaempferol, the CCO cells were seeded in 24-well plates and cultured overnight at 28°C before infection. Then, the monolayer cells were infected with CCV at 10^3 TCID50/ml for 1 h. Subsequently, the infected cells were treated with kaempferol at different concentrations (2.5, 5, 7.5, 10, 12.5, and 15 μg/mL), respectively. The CCO cells without CCV and drug treatment were set as mock control whereas the virus-infected cells without compound treatment were set as CCV control. Each sample was directly observed and photographed under an inverted microscope at 24 and 36 h post-infection. Meanwhile, the plaque assay was performed as described in previous studies with slight modifications ([34]). Briefly, confluent cells in 24-well plates were infected with CCV (10^3 TCID50/ml) for 1 h. Subsequently, the inoculums were removed and the kaempferol with different concentrations (2.5, 5, 7.5, 10, 12.5, and 15 μg/mL) was added and remained throughout the experiment. The cells were fixed and stained with 1% crystal violet and then photographed at 36 h post-infection.
Figure 4 CPE and plaque reduction in CCO cells treated with kaempferol. (A) The cells were incubated with different concentrations of kaempferol (2.5, 5.0, 7.5, 10, 12.5 and 15.0 μg/mL) after CCV infection 1 h. […]

Structure (SMILES): O=c1c(O)c(-c2ccc(O)cc2)oc2cc(O)cc(O)c12 [Kaempferol]
- viral protein (CCV ORF 39, ORF 59) level, western blot ([1]; kaempferol 10 μg/mL to 15 μg/mL, 24 and 36 h): nearly undetectable
- expression of viral proteins (CCV ORF 39, ORF 59), western blot ([1]; maximum safe concentration (47.53 μg/mL), 36 h post-infection): suppressed the expression of viral proteins
- inhibition at 10 µg/mL [2]: ~100%
